The test system of data set [1] is CD3/IL2 stimulated PBMC cells. In words: IFNγ release from CD3/IL2 stimulated PBMC cells. Format: cell-based. Particulars: Homo sapiens, CD3/IL2 stimulation, 48 h, ELISA. The procedure:
PBMCs from healthy subjects are separated from whole blood using a density gradient (Lymphoprep, Axis-Shield Healthcare). Cells are added to a 96 well plate, and compound at the desired concentration added 2 hours prior to stimulation with a mixture of monoclonal antibody to CD3 (1 μg/ml, eBioscience) and human recombinant IL2 (10 ng/ml, Peprotech). After 48 hours incubation under normal tissue culture conditions, supernatants are collected and IFNγ release determined by Sandwich ELISA (Duo-set, R&D System). The IC50 is determined from the dose response curve.
For orientation: An ELISA detects its analyte on a solid surface through an enzyme-linked reagent.

The test system of a further data set is Jurkat cells. Description: Cell cytotoxicity assay (propidium iodide, flow cytometry). The format is cell-based, human. Particulars: 24 h. The method, then:
1×10^5 Jurkat cells (immortalised human T lymphocytes) are added to the appropriate number of wells of a 96 well plate in 100 μL of media (RPMI supplemented with 10% foetal bovine serum). 1 μL of DMSO control (final concentration 1.0% v/v) or test compound (final concentration 20, 5 or 1 μg/mL) is added to the wells and incubated at 37° C., 5% CO2. After 24 hours, the plate is centrifuged at 1200 rpm for 3 minutes and the supernatant discarded. Cells are then resuspended in 150 μL (final concentration 7.5 μg/mL) of propidium iodide (PI) in PBS and incubated at 37° C., 5% CO2 for 15 minutes. After 15 minutes, cells are analysed by flow cytometry (BD accuri) using the FL3 window. The % viability is calculated as the % of cells that are PI negative in the test wells normalised to the DMSO control.
(In flow cytometry, cells or beads pass a laser one at a time.)

Data set [2] is described as follows: Systemic pharmacokinetics and total colon tissue distribution after single oral administration. The settings on record: mice, oral 10 mg/kg; for concentration at 0.5 h / concentration at 1 h / concentration at 2 h / concentration at 4 h / concentration at 6 h / concentration at 8 h / concentration at 12 h / concentration at 24 h: male, C57BL/6, mouse. The format is in vivo, male C57BL/6 mice. The method, then:
Studies were conducted by Sai Life Sciences (Hinjewadi, Pune, India) to investigate the systemic pharmacokinetics and total colon tissue distribution of compounds of the invention following a single oral administration in male C57BL/6 mice.
A group of twenty four male mice were administered with a solution of test compound formulated at a dose of 10 mg/10 mL/kg in aqueous hydroxypropyl-β-cyclodextrin (20% w/v in water). Blood samples ([…]) were collected from retro-orbital plexus of each mouse under light isoflurane anaesthesia such that the samples were obtained at 0.5, 1, 2, 4, 6, 8, 12 and 24 hr. The blood samples were collected from a set of three mice at each time point in a labeled micro centrifuge tube containing K2EDTA as anticoagulant. Plasma samples were separated by centrifugation at 4000 rpm for 10 min and stored below −70° C. until bioanalysis. After collection of blood sample, animals were humanely euthanized by carbon dioxide asphyxiation to collect total colon tissues. The colons were flushed with cold PBS (pH7.4) to remove contents. The total colon tissues were homogenized with cold PBS (pH7.4) of twice the weight of colon tissue and stored below −70° C. Total volume was three times the total colon tissue weights. All samples were processed for analysis by protein precipitation using acetonitrile and analyzed with a fit-for-purpose LC-MS/MS method. Pharmacokinetic parameters were calculated using the non-compartmental analysis tool of Phoenix WinNonlin® (Version 6.3).

[3] abbreviates: total colon tissue, total colon, read-out: Mean total colon level.
[4] abbreviates: plasma, read-out: Mean plasma concentration.

Data on 15 compounds can be found in patent US10882859B2, “Kinase inhibitors” (Topivert Pharma Limited, priority 2015, dated 2021).

Molecules are shown by their SMILES. Where two headings read alike, the source gives them in different places.

Broadly, the IC50 is the concentration needed to halve the response being measured. Read a high IC50 as lower potency. Compound `CCc1cc(O)c(F)cc1-c1ccc2c(-c3nc4c([nH]3)CCN(C(=O)Nc3ccccc3)C4)n[nH]c2c1` [Example 4(f), 2-(6-(2-ethyl-5-fluoro-4-hydroxyphenyl)-1H-indazol-3-yl)-N-phenyl-6,7-dihydro-1H-imidazo[4,5-c]pyridine-5(4H)-carboxamide] returned an IC50 in data set [1] of 19.6 nM.

Turning to `CCc1cc(O)c(F)cc1-c1ccc2c(-c3nc4c([nH]3)CCN(C(=O)N(C)c3ccccc3)C4)n[nH]c2c1` [Example 2(e), 2-(6-(2-ethyl-5-fluoro-4-hydroxyphenyl)-1H-indazol-3-yl)-N-methyl-N-phenyl-1,4,6,7-tetrahydro-5H-imidazo[4,5-c]pyridine-5-carboxamide], in data set [1], the concentration for half-maximal inhibition (IC50) came to 10.9 nM. For the same compound, the “% viability at 1 μg/mL” value with Jurkat cells was determined as 92%.

The compound `CCc1cc(O)c(F)cc1-c1ccc2c(-c3nc4c([nH]3)CCN(C(=O)NCC3CCOCC3)C4)n[nH]c2c1` [Example 3, 2-(6-(2-Ethyl-5-fluoro-4-hydroxyphenvl)-1H-indazol-3-yl)-N-((tetrahydro-2H-byran-4-yl)methyl)-6,7-dihydro-1H-imidazo[4,5-c]pyridine-5(4)-carboxamide] returned a 50% inhibitory concentration (IC50) in data set [1] of 19.5 nM. The “% viability at 1 μg/mL” value in the data set with Jurkat cells was found to be 91%.

Consider `CCc1cc(O)c(F)cc1-c1ccc2c(-c3nc4c([nH]3)CCN(S(=O)(=O)N(C)C3CCOCC3)C4)n[nH]c2c1` [Example 6(c), 2-(6-(2-ethyl-5-fluoro-4-hydroxyphenyl)-1H-indazol-3-yl)-N-methyl-N-(tetrahydro-2H-pyran-4-yl)-6,7-dihydro-1H-imidazo[4,5-c]pyridine-5(4H)-sulfonamide], for which the 50% inhibitory concentration (IC50) in data set [1] was 9.3 nM. Moreover, the “% viability at 1 μg/mL” value in the data set with Jurkat cells is recorded as 76%.

With `CCc1cc(O)c(F)cc1-c1ccc2c(-c3nc4c([nH]3)CCN(S(=O)(=O)N3CCN(C=O)CC3)C4)n[nH]c2c1` [Example 6(h), 4-((2-(6-(2-ethyl-5-fluoro-4-hydroxyphenyl)-1H-indazol-3-yl)-6,7-dihydro-1H-imidazo[4,5-c]pyridin-5(4H)-yl)sulfonyl)piperazine-1-carbaldehyde], half-maximal inhibition in data set [1] (IC50) required 37.4 nM. Also, in the data set on Jurkat cells, the “% viability at 1 μg/mL” value was found to be 93%.

For the compound `CCc1cc(O)c(F)cc1-c1ccc2c(-c3nc4c([nH]3)CCN(C(=O)NCCOCCOC)C4)n[nH]c2c1` [Example 4(a), 2-(6-(2-ethyl-5-fluoro-4-hydroxyphenyl)-1H-indazol-3-yl)-N-(2-(2-methoxyethoxy)ethyl)-6,7-dihydro-1H-imidazo[4,5-c]pyridine-5(4H)-carboxamide], in data set [1], 14.6 nM corresponded to half-maximal inhibition (IC50). In the data set with Jurkat cells, the “% viability at 1 μg/mL” value came to 60%.

As to `CCc1cc(O)c(F)cc1-c1ccc2c(-c3nc4c([nH]3)CCN(S(=O)(=O)N3CCC(OC)CC3)C4)n[nH]c2c1` [Example 6(i), 5-Ethyl-2-fluoro-4-(3-(5-((4-methoxypiperidin-1-yl)sulfonyl)-4,5,6,7-tetrahydro-1H-imidazo[4,5-c]pyridin-2-yl)-1H-indazol-6-yl)phenol], the IC50 in data set [1] came out at 14 nM. Moreover, in the data set on Jurkat cells, the “% viability at 1 μg/mL” value is 86%.

In turn, `CCc1cc(O)c(F)cc1-c1ccc2c(-c3nc4c([nH]3)CCN(S(=O)(=O)N3CCS(=O)(=O)CC3)C4)n[nH]c2c1` [Example 6(g), 4-((2-(6-(2-ethyl-5-fluoro-4-hydroxyphenyl)-1H-indazol-3-yl)-6,7-dihydro-1H-imidazo[4,5-c]pyridin-5(4H)-yl)sulfonyl)thiomorpholine 1,1-dioxide] came in with an IC50 in data set [1] of 7.2 nM. In the data set on Jurkat cells, the “% viability at 1 μg/mL” value is listed as 88%.

As to `CCc1cc(O)c(F)cc1-c1ccc2c(-c3nc4c([nH]3)CCN(C(=O)N3CCc5ccccc53)C4)n[nH]c2c1` [Example 2(b), (2-(6-(2-ethyl-5-fluoro-4-hydroxyphenyl)-1H-indazol-3-yl)-1,4,6,7-tetrahydro-5H-imidazo[4,5-c]pyridin-5-yl)(indolin-1-yl)methanone], in data set [1], the IC50 was 31.3 nM.

In the case of `CCc1cc(O)c(F)cc1-c1ccc2c(-c3nc4c([nH]3)CCN(S(=O)(=O)N3CCC(C(=O)NC)CC3)C4)n[nH]c2c1` [Example 6(b), 1-((2-(6-(2-ethyl-5-fluoro-4-hydroxyphenyl)-1H-indazol-3-yl)-6,7-dihydro-1H-imidazo[4,5-c]pyridin-5(4H)-yl)sulfonyl)-N-methylpiperidine-4-carboxamide], in data set [1], the midpoint of inhibition, the IC50, lay at 100 nM.

For the compound `CCc1cc(O)c(F)cc1-c1ccc2c(-c3nc4c([nH]3)CCN(C(=O)c3cnc(N5CCCCC5)cn3)C4)n[nH]c2c1` [Reference Compound, reference compound], the “% viability at 1 μg/mL” value in the data set with Jurkat cells came to 49%. In addition, in data set [2] (setting [3]), the concentration at 0.5 h was 344 ng/g, the concentration at 1 h was 102 ng/g, the concentration at 2 h turned out to be 2370 ng/g and the concentration at 4 h was found to be 2970 ng/g. In data set [2] (setting [3]), the concentration at 6 h was found to be 201 ng/g, the concentration at 8 h came out at 2560 ng/g, the concentration at 12 h was found to be 3230 ng/g and the concentration at 24 h was 16.6 ng/g. In data set [2] (setting [4]), the concentration at 0.5 h worked out at 5.2 ng/mL, the concentration at 1 h stood at 12.8 ng/mL, the concentration at 2 h is 2.2 ng/mL and the concentration at 4 h was 14.4 ng/mL. In data set [2] (setting [4]), the concentration at 6 h is 114 ng/mL, the concentration at 8 h is 95 ng/mL, the concentration at 12 h was found to be 0 ng/mL and the concentration at 24 h came to 0 ng/mL. The “Colonic exposure AUC0-24 h” value in data set [2] (total colon) was 43,739 h·ng/g.

With `CCc1cc(O)c(F)cc1-c1ccc2c(-c3nc4c([nH]3)CCN(C(=O)Nc3ccc(S(C)(=O)=O)cc3)C4)n[nH]c2c1` [Example 4(b), 2-(6-(2-ethyl-5-fluoro-4-hydroxyphenyl)-1H-indazol-3-yl)-N-(4-(methylsulfonyl)phenyl)-6,7-dihydro-1H-imidazo[4,5-c]pyridine-5(4H)-carboxamide], half-maximal inhibition in data set [1] (IC50) required 54.8 nM.

`CCc1cc(O)c(F)cc1-c1ccc2c(-c3nc4c([nH]3)CCN(C(=O)N3CCCC3)C4)n[nH]c2c1` [Example 2(d), (2-(6-(2-ethyl-5-fluoro-4-hydroxyphenyl)-1H-indazol-3-yl)-1,4,6,7-tetrahydro-5H-imidazo[4,5-c]pyridin-5-yl)(pyrrolidin-1-yl)methanone] displayed an IC50 in data set [1] of 5.1 nM.

With `CCc1cc(O)c(F)cc1-c1ccc2c(-c3nc4c([nH]3)CN(C(=O)Nc3cccc5nsnc35)CC4)n[nH]c2c1` [Example 4(e), N-(benzo[c][1,2,5]thiadiazol-4-yl)-2-(6-(2-ethyl-5-fluoro-4-hydroxyphenyl)-1H-indazol-3-yl)-6,7-dihydro-1H-imidazo[4,5-c]pyridine-5(4H)-carboxamide], the concentration for half-maximal inhibition (IC50) in data set [1] was 30.9 nM.

The compound `CCc1cc(O)c(F)cc1-c1ccc2c(-c3nc4c([nH]3)CCN(C(=O)Nc3c(C)noc3C)C4)n[nH]c2c1` [Example 4(c), N-(3,5-dimethylisoxazol-4-yl)-2-(6-(2-ethyl-5-fluoro-4-hydroxyphenyl)-1H-indazol-3-yl)-6,7-dihydro-1H-imidazo[4,5-c]pyridine-5(4H)-carboxamide] displayed a concentration for half-maximal inhibition (IC50) in data set [1] of 44.2 nM.
